Legend:
Test in all cases: relative viability (nuclei count vs DMSO), 5 days (fraction); higher = more cells survive
[1] = compound: O=C(O)c1ccc2c(c1)nc(Nc1cccc(Cl)c1)c1ccncc12 [Silmitasertib] + C[C@@H](Oc1cc(-c2cnn(C3CCNCC3)c2)cnc1N)c1c(Cl)ccc(F)c1Cl [Crizotinib] (partner 1 µM)
How it was run: (§1)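 Relative viability is defined as nuclei in treated wells over nuclei in vehicle wells. Duplicate plates were run and medians reported. Lung cancer cell lines in 1536-well plates were dosed by pin tool one day after seeding, with one drug or with a fixed anchor-drug dose plus five library-drug doses (not always all listed) in √10 steps, and nuclei were counted after 5 days.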

[2] = compound: O=C(O)c1ccc2c(c1)nc(Nc1cccc(Cl)c1)c1ccncc12 [Silmitasertib] + Cc1nc(Nc2ncc(C(=O)Nc3c(C)cccc3Cl)s2)cc(N2CCN(CCO)CC2)n1 [Dasatinib] (partner 0.075 µM)
How it was run: as §1

Silmitasertib + Olaparib = compound: O=C(O)c1ccc2c(c1)nc(Nc1cccc(Cl)c1)c1ccncc12 [Silmitasertib] + O=C(c1cc(Cc2n[nH]c(=O)c3ccccc23)ccc1F)N1CCN(C(=O)C2CC2)CC1 [Olaparib] (partner 8 µM)
How it was run: as §1

[3] = compound: O=C(O)c1ccc2c(c1)nc(Nc1cccc(Cl)c1)c1ccncc12 [Silmitasertib] + Cc1nc(NC(=O)N2CCC[C@H]2C(N)=O)sc1-c1ccnc(C(C)(C)C(F)(F)F)c1 [Alpelisib] (partner 2 µM)
How it was run: as §1

Silmitasertib = compound: O=C(O)c1ccc2c(c1)nc(Nc1cccc(Cl)c1)c1ccncc12 [Silmitasertib]
How it was run: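 Acceptance criteria were a control CV below 25% and at least one doubling per plate. Lung cancer cell lines in 1536-well plates got five library-drug doses (not always all listed) √10 apart by pinning and were left 5 days with no medium change. Viability divides treated-well nuclei by vehicle-well nuclei and is the median across plates. Nuclei were counted by MetaXpress from 4× Hoechst images.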

## NCI-H2347
[1]; first compound 0.04 µM
  relative viability: 0.792
[1]; first compound 0.4 µM
  relative viability: 0.683
[1]; first compound 1.265 µM
  relative viability: 0.725
[1]; first compound 4 µM
  relative viability: 0.567
[2]; first compound 0.04 µM
  relative viability: 0.581
[2]; first compound 1.265 µM
  relative viability: 0.313
[2]; first compound 4 µM
  relative viability: 0.254
Silmitasertib + Olaparib; first compound 0.04 µM
  relative viability: 0.602
Silmitasertib + Olaparib; first compound 0.4 µM
  relative viability: 0.52
Silmitasertib + Olaparib; first compound 1.265 µM
  relative viability: 0.56
Silmitasertib + Olaparib; first compound 4 µM
  relative viability: 0.507
[3]; first compound 0.04 µM
  relative viability: 1.07
[3]; first compound 0.4 µM
  relative viability: 0.854
[3]; first compound 1.265 µM
  relative viability: 0.93
[3]; first compound 4 µM
  relative viability: 0.904
Silmitasertib; 0.04 µM
  relative viability: 1.1
Silmitasertib; 0.4 µM
  relative viability: 0.754
Silmitasertib; 1.265 µM
  relative viability: 0.98
Silmitasertib; 4 µM
  relative viability: 0.687

## NCI-H2405
[1]; first compound 0.04 µM
  relative viability: 0.822
[1]; first compound 0.4 µM
  relative viability: 0.692
[1]; first compound 1.265 µM
  relative viability: 0.745
[1]; first compound 4 µM
  relative viability: 0.803
[2]; first compound 0.04 µM
  relative viability: 0.221
[2]; first compound 0.4 µM
  relative viability: 0.209
[2]; first compound 1.265 µM
  relative viability: 0.222
[2]; first compound 4 µM
  relative viability: 0.236
Silmitasertib + Olaparib; first compound 0.04 µM
  relative viability: 0.896
Silmitasertib + Olaparib; first compound 0.4 µM
  relative viability: 0.717
Silmitasertib + Olaparib; first compound 1.265 µM
  relative viability: 0.851
Silmitasertib + Olaparib; first compound 4 µM
  relative viability: 0.756
[3]; first compound 0.04 µM
  relative viability: 0.935
[3]; first compound 0.4 µM
  relative viability: 0.688
[3]; first compound 1.265 µM
  relative viability: 0.639
[3]; first compound 4 µM
  relative viability: 0.775
Silmitasertib; 0.04 µM
  relative viability: 1.24
Silmitasertib; 0.4 µM
  relative viability: 0.831
Silmitasertib; 1.265 µM
  relative viability: 0.883
Silmitasertib; 4 µM
  relative viability: 0.81

## NCI-H3122
[1]; first compound 0.04 µM
  relative viability: 0.305
[1]; first compound 0.4 µM
  relative viability: 0.262
[1]; first compound 1.265 µM
  relative viability: 0.256
[1]; first compound 4 µM
  relative viability: 0.262
[2]; first compound 0.04 µM
  relative viability: 0.807
[2]; first compound 0.4 µM
  relative viability: 0.706
[2]; first compound 1.265 µM
  relative viability: 0.84
[2]; first compound 4 µM
  relative viability: 0.834
Silmitasertib + Olaparib; first compound 0.04 µM
  relative viability: 0.675
Silmitasertib + Olaparib; first compound 0.4 µM
  relative viability: 0.371
Silmitasertib + Olaparib; first compound 1.265 µM
  relative viability: 0.616
Silmitasertib + Olaparib; first compound 4 µM
  relative viability: 0.644
[3]; first compound 0.04 µM
  relative viability: 0.784
[3]; first compound 0.4 µM
  relative viability: 0.726
[3]; first compound 1.265 µM
  relative viability: 0.902
[3]; first compound 4 µM
  relative viability: 0.969
Silmitasertib; 0.04 µM
  relative viability: 0.995
Silmitasertib; 0.4 µM
  relative viability: 0.889
Silmitasertib; 1.265 µM
  relative viability: 1.02
Silmitasertib; 4 µM
  relative viability: 0.983

## PC-3 [JPC-3]
[1]; first compound 0.04 µM
  relative viability: 0.968
[1]; first compound 0.4 µM
  relative viability: 0.868
[1]; first compound 1.265 µM
  relative viability: 1.03
[1]; first compound 4 µM
  relative viability: 0.999
[2]; first compound 0.04 µM
  relative viability: 1.04
[2]; first compound 0.4 µM
  relative viability: 0.628
[2]; first compound 1.265 µM
  relative viability: 1.03
[2]; first compound 4 µM
  relative viability: 0.899
Silmitasertib + Olaparib; first compound 0.04 µM
  relative viability: 1.22
Silmitasertib + Olaparib; first compound 0.4 µM
  relative viability: 0.737
Silmitasertib + Olaparib; first compound 1.265 µM
  relative viability: 1.12
Silmitasertib + Olaparib; first compound 4 µM
  relative viability: 1.13
[3]; first compound 0.04 µM
  relative viability: 1.02
[3]; first compound 0.4 µM
  relative viability: 0.79
[3]; first compound 1.265 µM
  relative viability: 1.01
[3]; first compound 4 µM
  relative viability: 1
Silmitasertib; 0.04 µM
  relative viability: 1.04
Silmitasertib; 0.4 µM
  relative viability: 0.812
Silmitasertib; 1.265 µM
  relative viability: 1.1
Silmitasertib; 4 µM
  relative viability: 0.953

## PC-14
[1]; first compound 0.04 µM
  relative viability: 0.932
[1]; first compound 0.4 µM
  relative viability: 0.897
[1]; first compound 1.265 µM
  relative viability: 0.888
[1]; first compound 4 µM
  relative viability: 0.847
[2]; first compound 0.04 µM
  relative viability: 0.273
[2]; first compound 0.4 µM
  relative viability: 0.236
[2]; first compound 1.265 µM
  relative viability: 0.293
[2]; first compound 4 µM
  relative viability: 0.388
Silmitasertib + Olaparib; first compound 0.04 µM
  relative viability: 0.346
Silmitasertib + Olaparib; first compound 0.4 µM
  relative viability: 0.163
Silmitasertib + Olaparib; first compound 1.265 µM
  relative viability: 0.34
Silmitasertib + Olaparib; first compound 4 µM
  relative viability: 0.272
[3]; first compound 0.04 µM
  relative viability: 0.968
[3]; first compound 0.4 µM
  relative viability: 0.942
[3]; first compound 1.265 µM
  relative viability: 0.924
[3]; first compound 4 µM
  relative viability: 0.939
Silmitasertib; 0.04 µM
  relative viability: 1.2
Silmitasertib; 0.4 µM
  relative viability: 0.703
Silmitasertib; 1.265 µM
  relative viability: 1.02
Silmitasertib; 4 µM
  relative viability: 0.735

## RERF-LC-KJ
[1]; first compound 0.04 µM
  relative viability: 0.77
[1]; first compound 0.4 µM
  relative viability: 0.817
[1]; first compound 1.265 µM
  relative viability: 0.736
[1]; first compound 4 µM
  relative viability: 0.711
[2]; first compound 0.04 µM
  relative viability: 0.879
[2]; first compound 0.4 µM
  relative viability: 0.735
[2]; first compound 1.265 µM
  relative viability: 0.393
[2]; first compound 4 µM
  relative viability: 0.435
Silmitasertib + Olaparib; first compound 0.04 µM
  relative viability: 0.909
Silmitasertib + Olaparib; first compound 0.4 µM
  relative viability: 0.829
Silmitasertib + Olaparib; first compound 1.265 µM
  relative viability: 0.785
Silmitasertib + Olaparib; first compound 4 µM
  relative viability: 0.74
[3]; first compound 0.04 µM
  relative viability: 0.929
[3]; first compound 0.4 µM
  relative viability: 0.797
[3]; first compound 1.265 µM
  relative viability: 0.66
[3]; first compound 4 µM
  relative viability: 0.51
Silmitasertib; 0.04 µM
  relative viability: 1.03
Silmitasertib; 0.4 µM
  relative viability: 0.848
Silmitasertib; 1.265 µM
  relative viability: 0.823
Silmitasertib; 4 µM
  relative viability: 0.581

## SK-LU-1
[1]; first compound 0.04 µM
  relative viability: 1.2
[1]; first compound 0.4 µM
  relative viability: 0.714
[1]; first compound 1.265 µM
  relative viability: 0.502
[1]; first compound 4 µM
  relative viability: 0.315
[2]; first compound 0.04 µM
  relative viability: 0.203
[2]; first compound 0.4 µM
  relative viability: 0.164
[2]; first compound 1.265 µM
  relative viability: 0.172
[2]; first compound 4 µM
  relative viability: 0.175
Silmitasertib + Olaparib; first compound 0.04 µM
  relative viability: 0.45
Silmitasertib + Olaparib; first compound 0.4 µM
  relative viability: 0.267
Silmitasertib + Olaparib; first compound 1.265 µM
  relative viability: 0.308
Silmitasertib + Olaparib; first compound 4 µM
  relative viability: 0.225
[3]; first compound 0.04 µM
  relative viability: 1.09
[3]; first compound 0.4 µM
  relative viability: 0.836
[3]; first compound 1.265 µM
  relative viability: 0.413
[3]; first compound 4 µM
  relative viability: 0.27
Silmitasertib; 0.04 µM
  relative viability: 1.13
Silmitasertib; 0.4 µM
  relative viability: 0.703
Silmitasertib; 1.265 µM
  relative viability: 0.802
Silmitasertib; 4 µM
  relative viability: 0.457

## SK-MES-1
[1]; first compound 0.04 µM
  relative viability: 1.1
[1]; first compound 0.4 µM
  relative viability: 1.05
[1]; first compound 1.265 µM
  relative viability: 1.06
[1]; first compound 4 µM
  relative viability: 0.656
[2]; first compound 0.04 µM
  relative viability: 0.47
[2]; first compound 0.4 µM
  relative viability: 0.283
[2]; first compound 1.265 µM
  relative viability: 0.294
[2]; first compound 4 µM
  relative viability: 0.232
Silmitasertib + Olaparib; first compound 0.04 µM
  relative viability: 0.777
Silmitasertib + Olaparib; first compound 0.4 µM
  relative viability: 0.623
Silmitasertib + Olaparib; first compound 1.265 µM
  relative viability: 0.289
Silmitasertib + Olaparib; first compound 4 µM
  relative viability: 0.207
[3]; first compound 0.04 µM
  relative viability: 0.87
[3]; first compound 0.4 µM
  relative viability: 0.896
[3]; first compound 1.265 µM
  relative viability: 0.788
[3]; first compound 4 µM
  relative viability: 0.446
Silmitasertib; 0.04 µM
  relative viability: 1.04
Silmitasertib; 0.4 µM
  relative viability: 0.989
Silmitasertib; 1.265 µM
  relative viability: 0.855
Silmitasertib; 4 µM
  relative viability: 0.491

## SW 1573
[1]; first compound 0.04 µM
  relative viability: 0.952
[1]; first compound 0.4 µM
  relative viability: 0.707
[1]; first compound 1.265 µM
  relative viability: 0.734
[1]; first compound 4 µM
  relative viability: 0.625
[2]; first compound 0.04 µM
  relative viability: 0.624
[2]; first compound 0.4 µM
  relative viability: 0.516
[2]; first compound 1.265 µM
  relative viability: 0.576
[2]; first compound 4 µM
  relative viability: 0.451
Silmitasertib + Olaparib; first compound 0.04 µM
  relative viability: 0.552
Silmitasertib + Olaparib; first compound 0.4 µM
  relative viability: 0.457
Silmitasertib + Olaparib; first compound 1.265 µM
  relative viability: 0.428
Silmitasertib + Olaparib; first compound 4 µM
  relative viability: 0.427
[3]; first compound 0.04 µM
  relative viability: 0.758
[3]; first compound 0.4 µM
  relative viability: 0.588
[3]; first compound 1.265 µM
  relative viability: 0.723
[3]; first compound 4 µM
  relative viability: 0.504
Silmitasertib; 0.04 µM
  relative viability: 1.19
Silmitasertib; 0.4 µM
  relative viability: 0.955
Silmitasertib; 1.265 µM
  relative viability: 0.876
Silmitasertib; 4 µM
  relative viability: 0.779

## UMC-11
[1]; first compound 0.04 µM
  relative viability: 0.604
[1]; first compound 0.4 µM
  relative viability: 0.683
[1]; first compound 1.265 µM
  relative viability: 0.56
[1]; first compound 4 µM
  relative viability: 0.324
[2]; first compound 0.04 µM
  relative viability: 0.508
[2]; first compound 0.4 µM
  relative viability: 0.477
[2]; first compound 1.265 µM
  relative viability: 0.491
[2]; first compound 4 µM
  relative viability: 0.331
Silmitasertib + Olaparib; first compound 0.04 µM
  relative viability: 0.335
Silmitasertib + Olaparib; first compound 0.4 µM
  relative viability: 0.298
Silmitasertib + Olaparib; first compound 1.265 µM
  relative viability: 0.301
Silmitasertib + Olaparib; first compound 4 µM
  relative viability: 0.26
[3]; first compound 0.04 µM
  relative viability: 1.03
[3]; first compound 0.4 µM
  relative viability: 0.994
[3]; first compound 1.265 µM
  relative viability: 1
[3]; first compound 4 µM
  relative viability: 0.627
Silmitasertib; 0.04 µM
  relative viability: 1.11
Silmitasertib; 0.4 µM
  relative viability: 0.916
Silmitasertib; 1.265 µM
  relative viability: 0.985
Silmitasertib; 4 µM
  relative viability: 0.684

Source: the supplement of paper PMC10307832
